Molecules are shown by their SMILES.

One assay deals with tonic extensor seizures elicited by maximal electroshock. As to the kind of experiment: electroshock induced convulsion inhibition assay (E.S.). Format: in vivo, Cox standard strain albino male mice. To be noted: mouse, oral dose (gavage), 0.1 second 50 milliampere corneal electroshock, inhibition of extensor tonic convulsions, at time of optimal response. How it is done:
In the electroshock induced convulsion inhibition assay (E.S.), the compound to be tested was suspended in acacia and administered by gavage to each of ten Cox standard strain albino male mice (18-24 g) at the dose level being investigated. […] The animals were examined and evaluated immediately after the electroshock for the occurrence of clonic, flexor tonic, or extensor tonic convulsions, or death and the ED50 was determined for each compound as the dose which inhibited the occurrence of extensor tonic convulsions in one half of the animals immediately after the electroshock. For comparison, 18 milliamperes was usually sufficient to produce extensor tonic convulsions in about half of the control animals; at 50 milliamperes, almost all control animals (receiving vehicle only) died. The test results summarized in Table I are reported as the ED50 values at the time interval found to provide an optimal response after dosing.
The ED50 is the dose at which the effect has come halfway, by size or by number of responders. A higher ED50 goes with a need for a large dose. Compound `Cc1cccc(C)c1NC(=O)c1ccc(C(F)(F)F)cc1` [Example 1, N-(2,6-dimethylphenyl)-4-(trifluoromethyl)benzamide] yielded an ED50 of about 225 mg/kg.
`Cc1cccc(C)c1NC(=O)c1ccc(C#N)cc1` [Example 2, 4-Cyano-N-(2,6-dimethylphenyl)benzamide] yielded an ED50 of 13.2 mg/kg.
Same read-out and setting: next, `Cc1ccc(C(=O)Nc2c(C)cccc2C)cc1` [Example 3, N-(2,6-dimethylphenyl)-4-methylbenzamide]: about 250 mg/kg; `COc1ccc(C(=O)Nc2c(C)cccc2C)cc1` [Example 4, N-(2,6-dimethylphenyl)-4-methoxybenzamide]: 15 mg/kg.
Still for that read-out and setting: next, `CSc1ccc(C(=O)Nc2c(C)cccc2C)cc1` [Example 5, N-(2 6-dimethylphenyl)-4-(methylthio)benzamide]: about 75 mg/kg; `Cc1cccc(C)c1NC(=O)c1ccc(N(C)C)cc1` [Example 6, 4-(Dimethylamino)-N-(2,6-dimethylphenyl)benzamide]: 3.65 mg/kg.
`CCNc1ccc(C(=O)Nc2c(C)cccc2C)cc1` [Example 7, N-(2,6-dimethylphenyl)-4-(ethylamino)benzamide] showed an ED50 of 2.45 mg/kg.
On the same count and under the same terms, next, `CNc1ccc(C(=O)Nc2c(C)cccc2C)cc1` [Example 8, N-(2,6-dimethylphenyl)-4-(methylamino)benzamide]: 2 mg/kg; `CCCN(C)c1ccc(C(=O)Nc2c(C)cccc2C)cc1` [Example 9, N-(2,6-dimethylphenyl)-4-(methylpropylamino)benzamide]: 4.6 mg/kg; `Cc1cccc(C)c1NC(=O)c1ccc(-n2ccnc2)cc1.Cl` [Example 10, N-(2,6-dimethylphenyl)-4-(1H-imidazol-1-yl)benzamide hydrochloride]: about 50 mg/kg.
Same read-out and setting: next, `Cc1cccc(C)c1NC(=O)c1ccc(CN)cc1.Cl` [Example 11, 4-(Aminomethyl)-N-(2,6-dimethylphenyl)benzamide hydrochloride]: 38 mg/kg; `Cc1cccc(C)c1NC(=O)c1ccc(C(N)=O)cc1` [Example 12, N-(2,6-Dimethylphenyl)-1,4-benzenedicarboxamide]: about 75 mg/kg; `Cc1cccc(C)c1NC(=O)c1ccc([S+](C)[O-])cc1` (stereo not shown) [Example 13, N-(2,6-dimethylphenyl)-4-(methylsulfinyl)benzamide]: 13 mg/kg.
Same read-out and setting: next, `Cc1cccc(C)c1NC(=O)c1ccc(S(C)(=O)=O)cc1` [Example 14, N-(2,6-dimethylphenyl)-4-(methylsulfonyl)benzamide]: 14 mg/kg; `Cc1cccc(C)c1NC(=O)c1ccc(O)cc1` [Example 15, N-(2,6-dimethylphenyl)-4-hydroxybenzamide]: 11.2 mg/kg.

The subject of the next assay is seizures in man.
Assay: not given
To be noted: Gilman, Goodman, and Gilman, 6th Ed., p. 455; cited from earlier work.
As to `O=C1NC(=O)C(c2ccccc2)(c2ccccc2)N1` [phenytoin], the “plasma level at which seizures are controlled” value is at least 10 µg/mL.

Source of the values: patent publication US4939163A, “Anticonvulsant agents” (Eli Lilly and Company, priority 1989, dated 1990).
